Data set [1] is described as follows: Human plasma protein binding of technetium complexes (ultrafiltration). In kind it is in vitro ADME. Conditions: technetium complex, read-out: PPB % bound (converted). As to the method:
Human plasma protein binding was determined by ultrafiltration^(9), such that the percentage of complex bound is an indicator of the affinity of binding.
The plasma protein binding figure obtained for a given compound is highly dependent on the method of determination used^(10). Thus equilibrium dialysis measurement may lead to higher PPB figures than those obtained via ultrafiltration due to longer incubation times. Use of serum rather than plasma may also underestimate the true extent of binding. There are also significant interspecies differences.

For data set [2] the following is noted: neutral lipophilic technetium complex; cited from earlier work.
In data set [3] the test system is V79-379A Chinese hamster cells. The data set can be described thus: Hypoxic and oxic binding of 99mTc labelled compounds to cells in vitro. In kind it is cell-based. The conditions noted are these: 99mTc complex; for Oxic SN (supernatant): air +5% CO2; for Oxic pellet: air +5% CO2, 37° C.; for Oxic pellet / Hypoxic pellet: 10^6 cells per pellet; for Hypoxic SN (supernatant): nitrogen +5% CO2; for Hypoxic pellet: nitrogen +5% CO2, 37° C. As to the method:
V79-379A Chinese hamster cells were harvested from exponential suspension culture and resuspended at 1.1×10^6 cells cm^-3 in Bagle's MEM. 20 cm^3 of cells were transferred to small spinner vessels and gassed with either air +5% CO2 (oxic) or nitrogen +5% CO2 (Hypoxic) at 37° C. After 30 minutes, between 0.5 cm^3 and 1 cm^3 of ^99m Tc labelled compound was added. At timed intervals 1 cm^3 of cell suspension was withdrawn from each flask and chilled on ice in small polystyrene centrifuge tubes. The cells were centrifuged and washed three times in ice-cold medium (Eagle's MEM) to give constant counts in the cell pellet. The pellets were counted in LKB 1282 Compugamma counter. The initial supernatant was diluted 1 in 100 with saline and 1 cm^3 was counted. All samples were counted at the end of the incubation period and counts have been corrected for decay during counting but not for decay during incubation.
Attempts were made to decrease the amount of non-specific binding by incubating the cell samples in a large volume of medium for one hour at 37° C. under oxic conditions.

The test system of data set [4] is human erythrocyte ghosts. The data set can be described thus: Red cell ghost (RCG) uptake. In kind it is in vitro ADME. Conditions: for RCG uptake: technetium complex, human erythrocyte ghosts. As to the method:
RCG uptake is determined by incubation of a fixed amount of labelled complex with a range of ghost concentrations. The percentage of labelled complex […] is calculated for each ghost concentration to yield a single uptake figure expressed as %/mg protein.

The nature of data set [5]: Stability when handled in air. In kind it is physicochemical.

Each structure is given as a SMILES string.

With `CC(C)(S)CNCCNCC(C)(C)S` [BAT, reference compound], the fraction unbound in data set [1] is 0.38. Also, the blood-brain barrier passage result in data set [2] is given as “can cross the blood-brain barrier”.

On to `CC(=O)NCSCC(NCC(O)Cn1ccnc1[N+](=O)[O-])C(=O)NCC(=O)NCCN(C)C` (stereo not drawn) [HL11P], for which the “Hypoxic:oxic ratio” value stood at 5.79 in data set [3] (0.5 hrs); 2.91 in data set [3] (1.0 hrs); 3.86 in data set [3] (2.0 hrs); 3.60 in data set [3] (3.0 hrs); 5.07 in data set [3] (4.0 hrs); 3.26 in data set [3] (5.0 hrs). Further, the “Oxic SN (supernatant)” value in data set [3] (0.5 hrs) is reported as 25.1 cpm/ml (10^-7); in data set [3] (1.0 hrs) it was 24.9 cpm/ml (10^-7); in data set [3] (2.0 hrs) it was 25.5 cpm/ml (10^-7); in data set [3] (3.0 hrs), 25.6 cpm/ml (10^-7); in data set [3] (4.0 hrs) it was 26.0 cpm/ml (10^-7); in data set [3] (5.0 hrs), 25.7 cpm/ml (10^-7). Moreover, the Oxic pellet in data set [3] (0.5 hrs) is reported as 0.42 cpm (×10^-5); in data set [3] (1.0 hrs), 0.71 cpm (×10^-5); in data set [3] (2.0 hrs), 0.99 cpm (×10^-5); in data set [3] (3.0 hrs), 1.18 cpm (×10^-5); in data set [3] (4.0 hrs) it was 1.40 cpm (×10^-5); in data set [3] (5.0 hrs), 1.63 cpm (×10^-5). Moreover, the “Hypoxic SN (supernatant)” value in data set [3] (0.5 hrs) was 22.2 cpm/ml (10^-7); in data set [3] (1.0 hrs), 22.3 cpm/ml (10^-7); in data set [3] (2.0 hrs), 22.2 cpm/ml (10^-7); in data set [3] (3.0 hrs), 22.4 cpm/ml (10^-7); in data set [3] (4.0 hrs), 22.8 cpm/ml (10^-7); in data set [3] (5.0 hrs), 22.7 cpm/ml (10^-7). Besides, the Hypoxic pellet in data set [3] (0.5 hrs) was 2.15 cpm (×10^-5); in data set [3] (1.0 hrs), 1.85 cpm (×10^-5); in data set [3] (2.0 hrs), 3.33 cpm (×10^-5); in data set [3] (3.0 hrs), 3.72 cpm (×10^-5); in data set [3] (4.0 hrs), 6.22 cpm (×10^-5); in data set [3] (5.0 hrs) it was 4.70 cpm (×10^-5).

For the molecule `CC(=O)NCCNC(=O)CSCCSC1CCCCO1` (stereo not drawn) [HL15P, N-(2-Acetylaminoethyl)-2-(tetrahydropyran-2-ylthio)ethylthioacetamide], the fraction unbound in data set [1] was 1. In data set [4], this molecule registered an RCG uptake of 1.6 %/mg protein.

For `CC(=O)NCCNC(=O)CCSCCSC1CCCCO1` (stereo not drawn) [HL49, N-(2-acetylaminoethyl)-3-[2-(tetrahydropyran-2-ylthio)ethylthio]propionamide], the fraction unbound in data set [1] is 0.82. Further, the RCG uptake in data set [4] is recorded as 3.6 %/mg protein.

Take `CC(=O)NCCCNC(=O)CSCCSC1CCCCO1` (stereo not drawn) [HL60P, N-(3-acetylamino)propyl-2-(tetrahydropyran-2-ylthio)ethylthioacetamide]: the fraction unbound in data set [1] was 1. Further, in data set [4], the RCG uptake was 1.1 %/mg protein.

As for `CC(=O)NCCNC(=O)CSCCS` [HL 15D, N-(2-Acetylaminoethyl)-2-mercaptoethylthioacetamide], the “tendency to oxidise to the corresponding disulphide” value in data set [5] is “tended to oxidise to the corresponding disulphide if handled in air”.

Turning to `CC(=NO)C(C)(C)NCCCNC(C)(C)C(C)=NO` [PnAO, reference compound], in data set [1], the fraction unbound is 0.25. Further, the RCG uptake in data set [4] amounted to 6.7 %/mg protein.

In the case of `O=C([O-])CN(CCN(CC(=O)[O-])CC(=O)[O-])CCN(CC(=O)[O-])CC(=O)[O-].[99Tc+4]` [^99m Tc-DTPA, reference compound], the “RCG uptake (in words)” value in data set [4] (99mTc complex) is given as “excluded from the ghosts”.

Source of the values: US5932707A, “Thioether-containing metal chelating compounds” (Nycomed Amersham plc, priority 1993, dated 1999).
